Experiments:
[1] = (§1) The drug is tested on WLS-073 corresponding to human gut metagenome with ENA study accession number: PRJEB37062 and ENA sample accession number: ERS12561749 for biotransformation under anaerobic condition. The drug concentrations were measured over 9 timepoints collected between 0 and 24 hours of incubation by liquid-chromatography-coupled mass spectrometry (LC–MS); conditions: 2 µM
[2] = human gut metagenome, 24 h, 2 µM
[3] = human gut metagenome, 24 h, 2 µM; remark: listed apart in the source
[4] = human gut metagenome, 24 h, 2 µM; remark: listed apart in the source
[5] = human gut metagenome, 24 h, 2 µM; remark: listed apart in the source
[6] = as §1, with “Z-021” for “WLS-073”, “to” for “to human gut”, “ERS12561820” for “ERS12561749”; conditions: 2 µM
[7] = as §1, with “WLS-077” for “WLS-073”, “ERS12561750” for “ERS12561749”; conditions: 2 µM
[8] = as §1, with “Z-030” for “WLS-073”, “mouse” for “human”, “ERS12561829” for “ERS12561749”; conditions: 2 µM
[9] = human gut metagenome, 24 h, 2 µM; remark: listed apart in the source
[10] = as §1, with “WLS-240” for “WLS-073”, “ERS12561773” for “ERS12561749”; conditions: 2 µM
[11] = as §1, with “WLS-039” for “WLS-073”, “ERS12561746” for “ERS12561749”; conditions: 2 µM
[12] = human gut metagenome, 24 h, 2 µM; remark: listed apart in the source
[13] = as §1, with “Z-007” for “WLS-073”, “rat” for “human”, “ERS12561807” for “ERS12561749”; conditions: 2 µM
[14] = as §1, with “Z-026” for “WLS-073”, “to” for “to human gut”, “ERS12561825” for “ERS12561749”; conditions: 2 µM
[15] = human gut metagenome, 24 h, 2 µM; remark: listed apart in the source
[16] = human gut metagenome, 24 h, 2 µM; remark: listed apart in the source
[17] = as §1, with “Z-025” for “WLS-073”, “rabbit” for “human”, “ERS12561824” for “ERS12561749”; conditions: 2 µM
[18] = human gut metagenome, 24 h, 2 µM; remark: listed apart in the source
[19] = as §1, with “WLS-010” for “WLS-073”, “ERS12561743” for “ERS12561749”; conditions: 2 µM
[20] = as §1, with “Z-008” for “WLS-073”, “to” for “to human gut”, “ERS12561808” for “ERS12561749”; conditions: 2 µM
Further: call rule not given here.

SMILES: CC(C)c1nc(N(C)S(C)(=O)=O)nc(-c2ccc(F)cc2)c1/C=C/[C@@H](O)C[C@@H](O)CC(=O)[O-].CC(C)c1nc(N(C)S(C)(=O)=O)nc(-c2ccc(F)cc2)c1/C=C/[C@@H](O)C[C@@H](O)CC(=O)[O-].[Ca+2] [ROSUVASTATIN CALCIUM]
- Bacterial Biotransformation [1]: Compound NOT metabolized
- Bacterial Biotransformation [2]: Compound metabolized
- Bacterial Biotransformation [3]: Compound metabolized
- Bacterial Biotransformation [4]: Compound metabolized
- Bacterial Biotransformation [5]: Compound metabolized
- Bacterial Biotransformation [6]: Compound NOT metabolized
- Bacterial Biotransformation [7]: Compound metabolized
- Bacterial Biotransformation [8]: Compound NOT metabolized
- Bacterial Biotransformation [9]: Compound NOT metabolized
- Bacterial Biotransformation [10]: Compound metabolized
- Bacterial Biotransformation [11]: Compound metabolized
- Bacterial Biotransformation [12]: Compound metabolized
- Bacterial Biotransformation [13]: Compound NOT metabolized
- Bacterial Biotransformation [14]: Compound NOT metabolized
- Bacterial Biotransformation [15]: Compound NOT metabolized
- Bacterial Biotransformation [16]: Compound metabolized
- Bacterial Biotransformation [17]: Compound NOT metabolized
- Bacterial Biotransformation [18]: Compound metabolized
- Bacterial Biotransformation [19]: Compound metabolized
- Bacterial Biotransformation [20]: Compound NOT metabolized

SMILES: O=C(O)c1cc(/N=N/c2ccc(S(=O)(=O)Nc3ccccn3)cc2)ccc1O [SULFASALAZINE]
- Bacterial Biotransformation [1]: Compound metabolized
- Bacterial Biotransformation [2]: Compound metabolized
- Bacterial Biotransformation [3]: Compound metabolized
- Bacterial Biotransformation [4]: Compound metabolized
- Bacterial Biotransformation [5]: Compound metabolized
- Bacterial Biotransformation [6]: Compound metabolized
- Bacterial Biotransformation [7]: Compound metabolized
- Bacterial Biotransformation [8]: Compound metabolized
- Bacterial Biotransformation [9]: Compound metabolized
- Bacterial Biotransformation [10]: Compound metabolized
- Bacterial Biotransformation [11]: Compound metabolized
- Bacterial Biotransformation [12]: Compound metabolized
- Bacterial Biotransformation [13]: Compound metabolized
- Bacterial Biotransformation [14]: Compound metabolized
- Bacterial Biotransformation [15]: Compound metabolized
- Bacterial Biotransformation [16]: Compound metabolized
- Bacterial Biotransformation [17]: Compound metabolized
- Bacterial Biotransformation [18]: Compound metabolized
- Bacterial Biotransformation [19]: Compound metabolized
- Bacterial Biotransformation [20]: Compound metabolized

SMILES: C=CC[C@@H]1/C=C(\C)C[C@H](C)C[C@H](OC)[C@H]2O[C@@](O)(C(=O)C(=O)N3CCCC[C@H]3C(=O)O[C@H](/C(C)=C/[C@@H]3CC[C@@H](O)[C@H](OC)C3)[C@H](C)[C@@H](O)CC1=O)[C@H](C)C[C@@H]2OC.O [TACROLIMUS]
- Bacterial Biotransformation [1]: Compound metabolized
- Bacterial Biotransformation [2]: Compound metabolized
- Bacterial Biotransformation [3]: Compound metabolized
- Bacterial Biotransformation [4]: Compound metabolized
- Bacterial Biotransformation [5]: Compound metabolized
- Bacterial Biotransformation [6]: Compound NOT metabolized
- Bacterial Biotransformation [7]: Compound metabolized
- Bacterial Biotransformation [8]: Compound NOT metabolized
- Bacterial Biotransformation [9]: Compound metabolized
- Bacterial Biotransformation [10]: Compound metabolized
- Bacterial Biotransformation [11]: Compound metabolized
- Bacterial Biotransformation [12]: Compound metabolized
- Bacterial Biotransformation [13]: Compound NOT metabolized
- Bacterial Biotransformation [14]: Compound NOT metabolized
- Bacterial Biotransformation [15]: Compound metabolized
- Bacterial Biotransformation [16]: Compound metabolized
- Bacterial Biotransformation [17]: Compound NOT metabolized
- Bacterial Biotransformation [18]: Compound NOT metabolized
- Bacterial Biotransformation [19]: Compound metabolized
- Bacterial Biotransformation [20]: Compound NOT metabolized

SMILES: CCS(=O)(=O)CCn1c([N+](=O)[O-])cnc1C [TINIDAZOLE]
- Bacterial Biotransformation [1]: Compound metabolized
- Bacterial Biotransformation [2]: Compound metabolized
- Bacterial Biotransformation [3]: Compound metabolized
- Bacterial Biotransformation [4]: Compound metabolized
- Bacterial Biotransformation [5]: Compound metabolized
- Bacterial Biotransformation [6]: Compound metabolized
- Bacterial Biotransformation [7]: Compound metabolized
- Bacterial Biotransformation [8]: Compound metabolized
- Bacterial Biotransformation [9]: Compound metabolized
- Bacterial Biotransformation [10]: Compound metabolized
- Bacterial Biotransformation [11]: Compound metabolized
- Bacterial Biotransformation [12]: Compound metabolized
- Bacterial Biotransformation [13]: Compound metabolized
- Bacterial Biotransformation [14]: Compound metabolized
- Bacterial Biotransformation [15]: Compound metabolized
- Bacterial Biotransformation [16]: Compound metabolized
- Bacterial Biotransformation [17]: Compound metabolized
- Bacterial Biotransformation [18]: Compound metabolized
- Bacterial Biotransformation [19]: Compound metabolized
- Bacterial Biotransformation [20]: Compound metabolized

SMILES: COc1ccc(CN2CCNCC2)c(OC)c1OC.Cl.Cl [TRIMETAZIDINE DIHYDROCHLORIDE]
- Bacterial Biotransformation [1]: Compound NOT metabolized
- Bacterial Biotransformation [2]: Compound NOT metabolized
- Bacterial Biotransformation [3]: Compound NOT metabolized
- Bacterial Biotransformation [4]: Compound NOT metabolized
- Bacterial Biotransformation [5]: Compound NOT metabolized
- Bacterial Biotransformation [6]: Compound NOT metabolized
- Bacterial Biotransformation [7]: Compound NOT metabolized
- Bacterial Biotransformation [8]: Compound NOT metabolized
- Bacterial Biotransformation [9]: Compound NOT metabolized
- Bacterial Biotransformation [10]: Compound NOT metabolized
- Bacterial Biotransformation [11]: Compound NOT metabolized
- Bacterial Biotransformation [12]: Compound NOT metabolized
- Bacterial Biotransformation [13]: Compound NOT metabolized
- Bacterial Biotransformation [14]: Compound NOT metabolized
- Bacterial Biotransformation [15]: Compound NOT metabolized
- Bacterial Biotransformation [16]: Compound NOT metabolized
- Bacterial Biotransformation [17]: Compound NOT metabolized
- Bacterial Biotransformation [18]: Compound NOT metabolized
- Bacterial Biotransformation [19]: Compound NOT metabolized
- Bacterial Biotransformation [20]: Compound NOT metabolized

SMILES: CN1[C@@H]2CC[C@H]1C[C@@H](OC(=O)c1c[nH]c3ccccc13)C2 [TROPISETRON]
- Bacterial Biotransformation [1]: Compound NOT metabolized
- Bacterial Biotransformation [2]: Compound NOT metabolized
- Bacterial Biotransformation [3]: Compound NOT metabolized
- Bacterial Biotransformation [4]: Compound NOT metabolized
- Bacterial Biotransformation [5]: Compound NOT metabolized
- Bacterial Biotransformation [6]: Compound NOT metabolized
- Bacterial Biotransformation [7]: Compound NOT metabolized
- Bacterial Biotransformation [8]: Compound NOT metabolized
- Bacterial Biotransformation [9]: Compound NOT metabolized
- Bacterial Biotransformation [10]: Compound NOT metabolized
- Bacterial Biotransformation [11]: Compound NOT metabolized
- Bacterial Biotransformation [12]: Compound NOT metabolized
- Bacterial Biotransformation [13]: Compound NOT metabolized
- Bacterial Biotransformation [14]: Compound NOT metabolized
- Bacterial Biotransformation [15]: Compound NOT metabolized
- Bacterial Biotransformation [16]: Compound NOT metabolized
- Bacterial Biotransformation [17]: Compound NOT metabolized
- Bacterial Biotransformation [18]: Compound NOT metabolized
- Bacterial Biotransformation [19]: Compound NOT metabolized
- Bacterial Biotransformation [20]: Compound NOT metabolized
